Measured values taken from ChEMBL document CHEMBL4482325, “Clpx inhibitory compounds for the treatment of multi resistant staphylococcus aureus virulence and for the treatment of leukemia” (2018).
Calls of active or inactive are those of the source. The rule behind the calls is not given here.

Assays:
Staphylococcus aureus [1] = experiment: (§1) Inhibition of Staphylococcus aureus ClpXP using ssrA degradation tagged fluorescent GFP substrate in presence of ATP regeneration system pre-incubation for 15 mins before substrate addition by fluorescence assay
A549 = experiment: Cytotoxicity against human A549 cells assessed as reduction in residual metabolic activity at 1 to 50 uM incubated for 24 hrs by MTT assay; type: functional, cell-based
[2] = target: T1, ATP-dependent Clp protease proteolytic subunit (Staphylococcus aureus (strain NCTC 8325)) (UniProt Q2G036); experiment: Inhibition of Staphylococcus aureus ClpP using ssrA degradation tagged fluorescent GFP substrate in presence of ATP regeneration system pre-incubation for 15 mins before substrate addition by fluorescence assay
T1 sequence (whole entry): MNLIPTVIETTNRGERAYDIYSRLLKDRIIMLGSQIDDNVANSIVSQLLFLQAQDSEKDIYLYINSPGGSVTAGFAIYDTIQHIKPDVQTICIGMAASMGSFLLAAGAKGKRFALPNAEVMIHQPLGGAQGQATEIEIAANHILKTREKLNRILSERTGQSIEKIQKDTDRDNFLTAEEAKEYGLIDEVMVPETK

Staphylococcus aureus [3] = experiment: Inhibition of Staphylococcus aureus ClpCP at 100 uM using ssrA degradation tagged fluorescent GFP substrate in presence of ATP regeneration system pre-incubation for 15 mins before substrate addition by fluorescence assay
[4] = as §1
Staphylococcus aureus [5] = experiment: Inhibition of Staphylococcus aureus ClpXP using ssrA degradation tagged fluorescent GFP substrate in presence of ATP regeneration system pre-incubation for 15 mins before substrate addition by fluorescence assay relative to control
Staphylococcus aureus [6] = experiment: Suppression of virulence factors in Staphylococcus aureus NCTC 8325 assessed as reduction in serine protease A expression; type: functional, organism-based
Staphylococcus aureus [7] = experiment: Inhibition of ClpXP in Staphylococcus aureus NCTC 8325 assessed as reduction in extracellular proteolytic activity by measuring overall proteolysis of sheep erythrocytes exposed to supernatants of 20 hrs 0.1 to 30 nmol compound pre-treated Staphylococcus aureus
Staphylococcus aureus [8] = experiment: Suppression of virulence factors in Staphylococcus aureus NCTC 8325 assessed as reduction in serine protease C expression; type: functional, organism-based
Staphylococcus aureus [9] = experiment: (§2) Inhibition of ClpXP in Staphylococcus aureus NCTC 8325 assessed as reduction in extracellular proteolytic activity by measuring hemolysis of sheep erythrocytes exposed to supernatants of 20 hrs compound pre-treated Staphylococcus aureus
[10] = as §2
[11] = Inhibition of Staphylococcus aureus ClpPX assessed as reduction in ATP hydrolysis incubated for 2 to 14 mins by malachite green assay
Staphylococcus aureus [12] = experiment: Suppression of virulence factors in Staphylococcus aureus NCTC 8325 assessed as reduction in serine protease B expression; type: functional, organism-based
Staphylococcus aureus [13] = experiment: Suppression of virulence factors in Staphylococcus aureus NCTC 8325 assessed as reduction in serine protease D expression; type: functional, organism-based
[14] = Half life in mouse plasma at 100 uM by HPLC and MS analysis; type: ADME, cell-free
Staphylococcus aureus [15] = experiment: Suppression of virulence factors in Staphylococcus aureus NCTC 8325 assessed as reduction in gamma hemolysin-C protein expression; type: functional, organism-based
Staphylococcus aureus [16] = experiment: Binding affinity to Staphylococcus aureus ClpXP assessed as induction of collapse of ClpXP proteolytic complex
Homo sapiens [17] = organism: Homo sapiens; experiment: Cytotoxicity against human S-Jurkat cells assessed as reduction in cell viability up to 120 uM incubated for 72 hrs by cell-titer blue reagent based assay; type: functional
Homo sapiens [18] = organism: Homo sapiens; experiment: Inhibition of human ClpXP at 1 to 100 uM preincubated for 15 mins before FITC-labeled casein substrate addition in presence of ATP regeneration mix and creatine kinase
Staphylococcus aureus [19] = experiment: Binding affinity to Staphylococcus aureus ClpPX assessed as induction of covalent modification a 100 um incubated for 60 mins by intact mass spectrometry
CCRF-CEM = experiment: Cytotoxicity against human CCRF-CEM cells assessed as reduction in cell viability up to 120 uM incubated for 72 hrs by cell-titer blue reagent based assay; type: functional
Staphylococcus aureus [20] = experiment: Suppression of virulence factors in Staphylococcus aureus NCTC 8325 assessed as reduction in serine protease E expression; type: functional, organism-based
Staphylococcus aureus [21] = experiment: Suppression of virulence factors in Staphylococcus aureus NCTC 8325 assessed as reduction in serine protease F expression; type: functional, organism-based
Staphylococcus aureus [22] = experiment: Suppression of virulence factors in Staphylococcus aureus NCTC 8325 assessed as reduction in staphopain-A expression; type: functional, organism-based
K562 = experiment: Cytotoxicity against human K562 cells assessed as reduction in cell viability up to 100 uM incubated for 72 hrs by cell-titer blue reagent based assay; type: functional

For `C#CCCCCOc1cc(O)cc(C2Sc3ccccc3NC3=C2C(=O)c2ccccc23)c1` (stereo not drawn), the “inhibition (active/not active)” value (Staphylococcus aureus [1]) was “Active”.

In the case of `C#Cc1ccc2c(c1)C(=O)C1=C2Nc2ccccc2SC1c1cc(O)cc(N=[N+]=[N-])c1` (stereo not drawn), the “inhibition (active/not active)” value (Staphylococcus aureus [1]) is reported as “Active”.

For `O=C1C2=C(Nc3ccccc3SC2c2ccc(C(F)(F)F)cc2)c2ccccc21` (stereo not drawn), the “inhibition (active/not active)” value (Staphylococcus aureus [1]) was “Active”.

With `O=C1C2=C(Nc3ccccc3NC2c2ccccc2)c2ccccc21` (stereo not drawn) the “inhibition (active/not active)” value (Staphylococcus aureus [1]) was “Active”.

In the case of `O=C1C2=C(Nc3ccccc3SC2c2cc(O)cc(O)c2)c2ccccc21` (stereo not drawn), the “inhibition (active/not active)” value (Staphylococcus aureus [1]) is reported as “Active”.

In the case of `O=C1C2=C(Nc3ccccc3SC2c2cccc(O)c2)c2cc(Cl)c(Cl)cc21` (stereo not drawn), the “inhibition (active/not active)” value (Staphylococcus aureus [1]) is reported as “Active”.

For `O=C1C2=C(Nc3ccccc3SC2c2cc(O)cc(Br)c2)c2ccccc21` (stereo not drawn), the “inhibition (active/not active)” value (Staphylococcus aureus [1]) was “Active”.

In the case of `O=C1C2=C(Nc3ccccc3SC2c2ccc(O)cc2)c2ccccc21` (stereo not drawn), the “inhibition (active/not active)” value (Staphylococcus aureus [1]) is reported as “Active”.

With `O=C1C2=C(Nc3ccccc3S(=O)(=O)C2c2cccc(O)c2)c2ccccc21` (stereo not drawn) the Activity (A549) was “inactive” and the “inhibition (active/not active)” value (Staphylococcus aureus [1]) was “Active”.

For `N#CC1=C(N)Oc2cc3c(cc2C1c1ccc(OCc2ccc(F)cc2)cc1)OCO3` (stereo not drawn), the inhibition [2] was “inactive”, the inhibition (Staphylococcus aureus [3]) was “inactive” and the IC50 [4] was 600 nM.

For `C#Cc1ccc2c(c1)C1=C(C2=O)C(c2cccc(O)c2)Sc2ccccc2N1` (stereo not drawn), the “inhibition (active/not active)” value (Staphylococcus aureus [1]) was “Active”.

For `C#CCNC(=O)c1ccc2c(c1)C1=C(C2=O)C(c2cccc(OC)c2)Sc2ccccc2N1` (stereo not drawn), the “inhibition (active/not active)” value (Staphylococcus aureus [1]) was “Active”.

With `CC(=O)Oc1ccc(C2Sc3ccccc3NC3=C2C(=O)c2ccccc23)cc1` (stereo not drawn) the inhibition (Staphylococcus aureus [5]) was 35% and the “inhibition (active/not active)” value (Staphylococcus aureus [1]) was “Active”.

For `C#Cc1ccc2c(c1)C1=C(C2=O)C(c2cc(O)cc(N=[N+]=[N-])c2)Sc2ccccc2N1` (stereo not drawn), the “inhibition (active/not active)” value (Staphylococcus aureus [1]) was “Active”.

With `O=C1C2=C(Nc3ccccc3S(=O)(=O)C2c2ccc(C(F)(F)F)cc2)c2ccccc21` (stereo not drawn) the “inhibition (active/not active)” value (Staphylococcus aureus [1]) was “Active”.

In the case of `O=C1C2=C(Nc3ccccc3SC2c2cccc(F)c2)c2ccccc21` (stereo not drawn), the “inhibition (active/not active)” value (Staphylococcus aureus [1]) is reported as “Active”.

For `COc1ccc2c(c1)SC(c1cccc(O)c1)C1=C(N2)c2ccccc2C1=O` (stereo not drawn), the “inhibition (active/not active)” value (Staphylococcus aureus [1]) was “Active”.

With `O=C(O)c1ccc(C2Sc3ccccc3NC3=C2C(=O)c2ccccc23)cc1` (stereo not drawn) the “inhibition (active/not active)” value (Staphylococcus aureus [1]) was “inactive”.

With `O=C1C2=C(Nc3ccccc3SC2c2ccccc2O)c2ccccc21` (stereo not drawn) the “inhibition (active/not active)” value (Staphylococcus aureus [1]) was “inactive”.

With `C#CCNC(=O)c1ccc2c(c1)C1=C(C2=O)C(c2cccc(O)c2)Sc2ccccc2N1` (stereo not drawn) the “inhibition (active/not active)” value (Staphylococcus aureus [1]) was “Active”.

With `O=C1C2=C(Nc3ccccc3SC2c2cccnc2)c2ccccc21` (stereo not drawn) the “inhibition (active/not active)” value (Staphylococcus aureus [1]) was “inactive”.

For `Cc1ccc(NC(=O)Cc2ccc(NC(=O)N3CCCCc4ccccc43)cc2)cc1C`, the inhibition [2] was “inactive”, the inhibition (Staphylococcus aureus [3]) was “inactive” and the IC50 [4] was 1600 nM.

For `COc1ccc(-n2ccnc(SCC(=O)Nc3cc(OC)cc(OC)c3)c2=O)cc1`, the inhibition [2] was “inactive”, the inhibition (Staphylococcus aureus [3]) was “inactive” and the IC50 [4] was 2200 nM.

With `O=C1C2=C(Nc3ccccc3SC2c2ccc(-c3ccccc3)cc2)c2ccccc21` (stereo not drawn) the “inhibition (active/not active)” value (Staphylococcus aureus [1]) was “Active”.

In the case of `COc1cc(O)cc(C2Sc3ccccc3NC3=C2C(=O)c2ccccc23)c1` (stereo not drawn), the “inhibition (active/not active)” value (Staphylococcus aureus [1]) is reported as “Active”.

With `O=C1C2=C(Nc3ccccc3S(=O)(=O)C2c2ccc(-c3ccccc3)cc2)c2ccccc21` (stereo not drawn) the “inhibition (active/not active)” value (Staphylococcus aureus [1]) was “Active”.

With `COc1cccc(C2Sc3ccccc3NC3=C2C(=O)c2ccccc23)c1` (stereo not drawn) the “inhibition (active/not active)” value (Staphylococcus aureus [1]) was “Active”.

With `N#CC1=C(N)Oc2[nH]nc(-c3ccc(Br)cc3)c2C1c1ccc(OC(=O)c2ccco2)cc1` (stereo not drawn) the inhibition [2] was “inactive”, the inhibition (Staphylococcus aureus [3]) was “inactive” and the IC50 [4] was 3100 nM.

With `C#CCNC(=O)c1ccc2c(c1)C(=O)C1=C2Nc2ccccc2SC1c1cccc(OC)c1` (stereo not drawn) the “inhibition (active/not active)” value (Staphylococcus aureus [1]) was “Active”.

In the case of `C#Cc1ccc2c(c1)C(=O)C1=C2Nc2ccccc2SC1c1cccc(O)c1` (stereo not drawn), the “inhibition (active/not active)” value (Staphylococcus aureus [1]) is reported as “Active”.

In the case of `O=C1C2=C(Nc3ccccc3SC2c2cccc(O)c2)c2ccccc21` (stereo not drawn), the Activity (Staphylococcus aureus [6]) is reported as “Dose-dependent effect”, the EC50 (Staphylococcus aureus [6]) is reported as 3000 nM and the inhibition (Staphylococcus aureus [7]) is reported as “Active”. The Activity (Staphylococcus aureus [8]) was “Dose-dependent effect”, the EC50 (Staphylococcus aureus [8]) was 3000 nM and the inhibition (Staphylococcus aureus [9]) was “Dose-dependent effect”. The IC50 [10] was 3000 nM, the IC50 [11] was 1600 to 2400 nM and the inhibition [2] was “inactive”. For the same molecule, the Activity (Staphylococcus aureus [12]) was “Dose-dependent effect”, the EC50 (Staphylococcus aureus [12]) was 3000 nM and the Activity (Staphylococcus aureus [13]) was “Dose-dependent effect”. The EC50 (Staphylococcus aureus [13]) was 3000 nM, the half-life at 100 µM [14] was > 4 h and the Activity (Staphylococcus aureus [15]) was “Dose-dependent effect”. The EC50 (Staphylococcus aureus [15]) was 3000 nM, the Activity (Staphylococcus aureus [16]) was “Active” and the Activity (Homo sapiens [17]) was “Active”. For the same molecule, the inhibition (Staphylococcus aureus [5]) was 100%, the inhibition (Homo sapiens [18]) was “Active” and the Activity (Staphylococcus aureus [19]) was “inactive”. For the same molecule, the Activity (CCRF-CEM) was “Active”, the Activity (Staphylococcus aureus [20]) was “Dose-dependent effect” and the EC50 (Staphylococcus aureus [20]) was 3000 nM. The Activity (Staphylococcus aureus [21]) was “Dose-dependent effect”, the EC50 (Staphylococcus aureus [21]) was 3000 nM and the inhibition (Staphylococcus aureus [3]) was “inactive”. The Activity (Staphylococcus aureus [22]) was “Dose-dependent effect”, the EC50 (Staphylococcus aureus [22]) was 3000 nM and the Activity (K562) was “Active”. The IC50 [4] was 1500 nM.

With `C#CCNC(=O)c1ccc2c(c1)C(=O)C1=C2Nc2ccccc2SC1c1cccc(O)c1` (stereo not drawn) the “inhibition (active/not active)” value (Staphylococcus aureus [1]) was “Active”.

For `O=C1C2=C(Nc3ccccc3S(=O)(=O)C2c2ccc(F)cc2)c2ccccc21` (stereo not drawn), the “inhibition (active/not active)” value (Staphylococcus aureus [1]) was “Active”.

In the case of `O=C1C2=C(Nc3ccccc3SC2c2ccc(F)cc2)c2ccccc21` (stereo not drawn), the “inhibition (active/not active)” value (Staphylococcus aureus [1]) is reported as “Active”.

In the case of `COc1cccc(C2C3=C(Nc4ccccc4S2(=O)=O)c2ccccc2C3=O)c1` (stereo not drawn), the “inhibition (active/not active)” value (Staphylococcus aureus [1]) is reported as “Active”.

With `Nc1cccc(C2Sc3ccccc3NC3=C2C(=O)c2ccccc23)c1` (stereo not drawn) the “inhibition (active/not active)” value (Staphylococcus aureus [1]) was “Active”.

With `COC(=O)c1ccc(OC(=O)CCc2cc(OC)c(OC)c(OC)c2)cc1` the inhibition (Staphylococcus aureus [3]) was “inactive”.

For `O=C1C2=C(Nc3ccccc3SC2c2cccs2)c2ccccc21` (stereo not drawn), the IC50 [11] was 1600 to 2400 nM, the inhibition [2] was “inactive” and the Activity (Homo sapiens [17]) was “Active”. The inhibition (Homo sapiens [18]) was “Active”, the Activity (CCRF-CEM) was “Active” and the inhibition (Staphylococcus aureus [3]) was “inactive”. For the same molecule, the Activity (K562) was “Active” and the IC50 [4] was 2500 nM.

With `O=C1C2=C(Nc3ccccc3SC2c2ccccc2)c2ccccc21` (stereo not drawn) the “inhibition (active/not active)” value (Staphylococcus aureus [1]) was “Active”.

For `O=C1C2=C(Nc3ccccc3SC2c2cccc(CO)c2)c2ccccc21` (stereo not drawn), the Activity (A549) was “inactive” and the “inhibition (active/not active)” value (Staphylococcus aureus [1]) was “Active”.
